Data taken from PubChem BioAssay AID1259407 (Chemical Carcinogenesis Research Information System (CCRIS), 2018).
Activity calls are given as the source filed them. How the calls were made is not given here.

Test system: CCRIS mutagenicity, Ames/micronucleus/aberration tests
Assay: CCRIS mutagenicity studies
[1] = Test System: AMES SALMONELLA TYPHIMURIUM, Strain/Indicator: TA98, Metabolic Activation: NONE, Method: PREINCUBATION
[2] = Test System: AMES SALMONELLA TYPHIMURIUM, Strain/Indicator: TA98, Metabolic Activation: NONE, Method: STANDARD PLATE
[3] = Test System: AMES SALMONELLA TYPHIMURIUM, Strain/Indicator: TA98, Metabolic Activation: RAT, LIVER, S-9, AROCLOR 1254, Method: STANDARD PLATE
[4] = Test System: AMES SALMONELLA TYPHIMURIUM, Strain/Indicator: TA100, Metabolic Activation: NONE, Method: PREINCUBATION
[5] = Test System: AMES SALMONELLA TYPHIMURIUM, Strain/Indicator: TA100, Metabolic Activation: RAT, LIVER, S-9, AROCLOR 1254, Method: PREINCUBATION
[6] = Test System: AMES SALMONELLA TYPHIMURIUM, Strain/Indicator: TA100, Metabolic Activation: RAT, LIVER, S-9, AROCLOR 1254, Method: STANDARD PLATE
[7] = Test System: AMES SALMONELLA TYPHIMURIUM, Strain/Indicator: TA1535, Metabolic Activation: NONE, Method: PREINCUBATION
[8] = Test System: AMES SALMONELLA TYPHIMURIUM, Strain/Indicator: TA1537, Metabolic Activation: NONE, Method: PREINCUBATION

O=C(O)/C=C/c1ccccc1[N+](=O)[O-]
mutagenic call [1]: inactive; negative
mutagenic call [2]: inactive; negative
mutagenic call [3]: inactive; negative
mutagenic call (Test System: AMES SALMONELLA TYPHIMURIUM, Strain/Indicator: TA98, Method: PREINCUBATION): inactive; negative
mutagenic call [4]: inactive; negative
mutagenic call (Test System: AMES SALMONELLA TYPHIMURIUM, Strain/Indicator: TA100, Metabolic Activation: NONE, Method: STANDARD PLATE): inactive; negative
mutagenic call [5]: inactive; negative
mutagenic call [6]: inactive; negative
mutagenic call (Test System: AMES SALMONELLA TYPHIMURIUM, Strain/Indicator: TA100, Method: PREINCUBATION): inactive; negative
mutagenic call [7]: inactive; negative
mutagenic call (Test System: AMES SALMONELLA TYPHIMURIUM, Strain/Indicator: TA1535, Method: PREINCUBATION): inactive; negative
mutagenic call [8]: inactive; negative
mutagenic call (Test System: AMES SALMONELLA TYPHIMURIUM, Strain/Indicator: TA1537, Method: PREINCUBATION): inactive; negative
mutagenic call (Test System: AMES SALMONELLA TYPHIMURIUM, Strain/Indicator: TA1538, Metabolic Activation: NONE, Method: PREINCUBATION): inactive; negative
mutagenic call (Test System: AMES SALMONELLA TYPHIMURIUM, Strain/Indicator: TA1538, Method: PREINCUBATION): inactive; negative

Cc1ccc2c(c1[N+](=O)[O-])C(=O)c1ccccc1C2=O
mutagenic call [2]: active; positive
mutagenic call [3]: active; positive
mutagenic call [6]: active; positive
mutagenic call (Test System: AMES SALMONELLA TYPHIMURIUM, Strain/Indicator: TA1535, Metabolic Activation: NONE, Method: STANDARD PLATE): inactive; negative
mutagenic call (Test System: AMES SALMONELLA TYPHIMURIUM, Strain/Indicator: TA1537, Metabolic Activation: RAT, LIVER, S-9, AROCLOR 1254, Method: STANDARD PLATE): active; positive
mutagenic call (Test System: AMES SALMONELLA TYPHIMURIUM, Strain/Indicator: TA1538, Metabolic Activation: NONE, Method: STANDARD PLATE): active; positive

O=C(O)CCC(=O)OC[C@@H](NC(=O)C(Cl)Cl)[C@H](O)c1ccc([N+](=O)[O-])cc1
mutagenic call (Test System: AMES SALMONELLA TYPHIMURIUM, Strain/Indicator: TA98, Metabolic Activation: HAMSTER, LIVER, S-9, AROCLOR 1254 (10%), Method: PREINCUBATION): inactive; negative
mutagenic call [1]: inactive; negative
mutagenic call (Test System: AMES SALMONELLA TYPHIMURIUM, Strain/Indicator: TA98, Metabolic Activation: RAT, LIVER, S-9, AROCLOR 1254 (10%), Method: PREINCUBATION): inactive; negative
mutagenic call (Test System: AMES SALMONELLA TYPHIMURIUM, Strain/Indicator: TA100, Metabolic Activation: HAMSTER, LIVER, S-9, AROCLOR 1254 (10%), Method: PREINCUBATION): inactive; negative
mutagenic call [4]: inactive; negative
mutagenic call (Test System: AMES SALMONELLA TYPHIMURIUM, Strain/Indicator: TA100, Metabolic Activation: RAT, LIVER, S-9, AROCLOR 1254 (10%), Method: PREINCUBATION): inactive; negative
mutagenic call (Test System: AMES SALMONELLA TYPHIMURIUM, Strain/Indicator: TA1535, Metabolic Activation: HAMSTER, LIVER, S-9, AROCLOR 1254 (10%), Method: PREINCUBATION): inactive; negative
mutagenic call [7]: inactive; negative
mutagenic call (Test System: AMES SALMONELLA TYPHIMURIUM, Strain/Indicator: TA1535, Metabolic Activation: RAT, LIVER, S-9, AROCLOR 1254 (10%), Method: PREINCUBATION): inactive; negative
mutagenic call (Test System: AMES SALMONELLA TYPHIMURIUM, Strain/Indicator: TA1537, Metabolic Activation: HAMSTER, LIVER, S-9, AROCLOR 1254 (10%), Method: PREINCUBATION): inactive; negative
mutagenic call [8]: inactive; negative
mutagenic call (Test System: AMES SALMONELLA TYPHIMURIUM, Strain/Indicator: TA1537, Metabolic Activation: RAT, LIVER, S-9, AROCLOR 1254 (10%), Method: PREINCUBATION): inactive; negative
mutagenic call (Test System: MOUSE LYMPHOMA, Strain/Indicator: L5178Y (TK+/TK-), Metabolic Activation: NONE, Method: SUSPENSION/PLATE): active; positive
mutagenic call (Test System: MOUSE LYMPHOMA, Strain/Indicator: L5178Y (TK+/TK-), Metabolic Activation: RAT, LIVER, S-9, AROCLOR 1254, Method: SUSPENSION/PLATE): active; positive
mutagenic call (Test System: MOUSE LYMPHOMA, Strain/Indicator: L5178Y (TK+/TK-), Metabolic Activation: RAT, LIVER, S-9, Method: SUSPENSION/PLATE): active; positive

Cc1c2cc(CO)ccc2nc2c3c(ccc12)[C@H](O)[C@@H](O)C=C3
mutagenic call [6]: active; positive

CC1=NCCc2c1[nH]c1cc(O)ccc21
mutagenic call (Test System: AMES SALMONELLA TYPHIMURIUM, Strain/Indicator: TA97, Metabolic Activation: NONE, Method: PREINCUBATION): inactive; negative
mutagenic call (Test System: AMES SALMONELLA TYPHIMURIUM, Strain/Indicator: TA97, Metabolic Activation: RAT, LIVER, S-9, AROCLOR 1254, Method: PREINCUBATION): inactive; negative
mutagenic call [1]: inactive; negative
mutagenic call (Test System: AMES SALMONELLA TYPHIMURIUM, Strain/Indicator: TA98, Metabolic Activation: RAT, LIVER, S-9, AROCLOR 1254, Method: PREINCUBATION): inactive; negative
mutagenic call [4]: inactive; negative
mutagenic call [5]: inactive; negative
mutagenic call (Test System: AMES SALMONELLA TYPHIMURIUM, Strain/Indicator: TA102, Metabolic Activation: NONE, Method: PREINCUBATION): inactive; negative
mutagenic call (Test System: AMES SALMONELLA TYPHIMURIUM, Strain/Indicator: TA102, Metabolic Activation: RAT, LIVER, S-9, AROCLOR 1254, Method: PREINCUBATION): inactive; negative

O=P(OCCC(Br)CBr)(OCCC(Br)CBr)OCCC(Br)CBr (stereo not drawn)
mutagenic call (Test System: AMES SALMONELLA TYPHIMURIUM, Strain/Indicator: TA100, Metabolic Activation: RAT, LIVER, MICROSOMES, PHENOBARBITAL, Method: PREINCUBATION): inactive; negative
mutagenic call (Test System: AMES SALMONELLA TYPHIMURIUM, Strain/Indicator: TA100, Metabolic Activation: RAT, LIVER, MICROSOMES, Method: PREINCUBATION): inactive; negative

Fc1cccc2c1ccc1ncccc12
mutagenic call (Test System: AMES SALMONELLA TYPHIMURIUM, Strain/Indicator: TA100, Metabolic Activation: RAT, LIVER, S-9, PHENOBARBITAL AND 5,6-BENZOFLAVONE, Method: PREINCUBATION): active; positive

O=[N+]([O-])c1ccc2ccc3cccc4cc(O)c1c2c34
mutagenic call [2]: active; positive
mutagenic call [3]: active; positive

C1CCNC1
mutagenic call [1]: inactive; negative
mutagenic call (Test System: AMES SALMONELLA TYPHIMURIUM, Strain/Indicator: TA98, Metabolic Activation: RAT, LIVER, S-9, PCB, Method: PREINCUBATION): inactive; negative
mutagenic call [4]: inactive; negative
mutagenic call (Test System: AMES SALMONELLA TYPHIMURIUM, Strain/Indicator: TA100, Metabolic Activation: RAT, LIVER, S-9, PCB, Method: PREINCUBATION): inactive; negative

COP(N)(=O)SC (stereo not drawn)
mutagenic call (Test System: Ames Salmonella typhimurium, Strain/Indicator: TA98, Metabolic Activation: None, Method: Preincubation): active; positive
mutagenic call (Test System: Ames Salmonella typhimurium, Strain/Indicator: TA98, Metabolic Activation: Rat, Liver, S-9 (10%), Aroclor 1254, Method: Preincubation): active; positive
mutagenic call (Test System: Ames Salmonella typhimurium, Strain/Indicator: TA100, Metabolic Activation: None, Method: Preincubation): inactive; negative
mutagenic call (Test System: Ames Salmonella typhimurium, Strain/Indicator: TA100, Metabolic Activation: Rat, Liver, S-9 (10%), Aroclor 1254, Method: Preincubation): inactive; negative
